This assay has as its target Nanoluciferase-BRD9 fusion protein (3×FLAG-NLuc-BRD9) in SYO-1 cells (Homo sapiens (Human), UniProt Q9H8M2). Nature of the assay: SYO1 BRD9 NanoLuc degradation assay. In kind it is cell-based. Conditions: SYO-1 cells expressing 3×FLAG-NLuc-BRD9, 6 hours incubation, top dose 1 μM. In short, it runs like this: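 Degradation read as loss of NLuc signal after 6 h compound exposure (1 μM top final, 3-fold steps, 10 points, duplicates) in SYO-1 cells stably carrying 3×FLAG-NLuc-BRD9. Signal normalised between DMSO-treated cells and cells given 1 μM of a known BRD9 degrader.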
Nanoluciferase-BRD9 fusion protein (3×FLAG-NLuc-BRD9) in SYO-1 cells, sequence (Q9H8M2 whole entry, the tested form may be a part): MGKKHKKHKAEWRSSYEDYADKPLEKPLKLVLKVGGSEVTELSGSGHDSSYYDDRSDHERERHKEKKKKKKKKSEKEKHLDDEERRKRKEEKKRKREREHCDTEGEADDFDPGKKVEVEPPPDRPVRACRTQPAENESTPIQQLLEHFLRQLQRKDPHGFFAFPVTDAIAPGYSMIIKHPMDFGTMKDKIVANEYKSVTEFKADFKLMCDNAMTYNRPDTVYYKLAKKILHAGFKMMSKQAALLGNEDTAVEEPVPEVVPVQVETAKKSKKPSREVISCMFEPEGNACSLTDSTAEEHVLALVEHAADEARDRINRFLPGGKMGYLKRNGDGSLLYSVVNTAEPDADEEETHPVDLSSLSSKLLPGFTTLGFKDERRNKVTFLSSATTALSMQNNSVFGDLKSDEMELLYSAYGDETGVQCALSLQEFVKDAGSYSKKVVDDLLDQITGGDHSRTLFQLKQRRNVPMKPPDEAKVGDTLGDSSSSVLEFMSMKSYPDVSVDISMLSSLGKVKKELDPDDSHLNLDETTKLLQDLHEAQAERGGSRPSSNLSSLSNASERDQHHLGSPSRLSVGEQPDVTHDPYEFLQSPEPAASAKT
For orientation: IC50 means the midpoint of a concentration-inhibition curve. A lower IC50 goes with higher potency. For the molecule `COc1cc(-c2cn(C)c(=O)c3c2CCN(C(=O)NCCN2CCC4(CCN(c5ccc6c(c5)C(=O)N(C5CCC(=O)NC5=O)C6=O)C4)C2)C3)cc(OC)c1CN(C)C` (stereo not shown) [Compound D190], the IC50 was 100 to 1000 nM. `COc1cc(-c2cn(C)c(=O)c3c2CCN(C(=O)NCCN2CC4(CCN(c5ccc6c(c5)C(=O)N(C5CCC(=O)NC5=O)C6=O)CC4)C2)C3)cc(OC)c1CN(C)C` (stereo not shown) [Compound D191] displayed an IC50 of 100 to 1000 nM. Regarding `COc1cc(-c2cn(C)c(=O)c3c2CCN(C(=O)NCCN2CC4(CCN4c4ccc5c(c4)C(=O)N(C4CCC(=O)NC4=O)C5=O)C2)C3)cc(OC)c1CN(C)C` (stereo not shown) [Compound D192], the IC50 was in the range of 100 to 1000 nM. Molecule `COc1cc(-c2cn(C)c(=O)c3c2CCN(C(=O)NCC2CC4(CCN(CCCCN5CCN(c6ccc7c(c6)C(=O)N(C6CCC(=O)NC6=O)C7=O)CC5)CC4)O2)C3)cc(OC)c1CN(C)C` (stereo not shown) [Compound D193] showed a half-inhibitory concentration (IC50) of at least 1000 nM. The result for `COc1cc(-c2cn(C)c(=O)c3c2CCN(C(=O)NCC2CC4(C2)CN(CCCOc2ccc5c(c2)C(=O)N(C2CCC(=O)NC2=O)C5=O)C4)C3)cc(OC)c1CN(C)C` (stereo not shown) [Compound D194] reads 100 to 1000 nM; that for `CNC(=O)N1CCc2c(-c3cc(OC)c(CN4CCC(CN(C)C5CCN(c6ccc7c(c6)C(=O)N(C6CCC(=O)NC6=O)C7=O)CC5)CC4)c(OC)c3)cn(C)c(=O)c2C1` (stereo not shown) [Compound D195], below 10 nM. Regarding `CNC(=O)N1CCc2c(-c3cc(OC)c(CN4CCC(CCN5CC6CN(c7ccc8c(c7)C(=O)N(C7CCC(=O)NC7=O)C8=O)CC6C5)CC4)c(OC)c3)cn(C)c(=O)c2C1` (stereo not shown) [Compound D196], the IC50 was below 10 nM. The result for `CNC(=O)N1CCc2c(-c3cc(OC)c(CN4CCC(CCN(C)C5CCN(c6ccc7c(c6)C(=O)N(C6CCC(=O)NC6=O)C7=O)C5)CC4)c(OC)c3)cn(C)c(=O)c2C1` (stereo not shown) [Compound D197] reads below 10 nM; that for `CNC(=O)N1CCc2c(-c3cc(OC)c(CN4CCC(CCN5CCCN(c6ccc7c(c6)C(=O)N(C6CCC(=O)NC6=O)C7=O)CC5)CC4)c(OC)c3)cn(C)c(=O)c2C1` (stereo not shown) [Compound D198], below 10 nM. `CNC(=O)N1CCc2c(-c3cc(OC)c(CN4CCC(CCN5CC6(C5)CN(c5ccc7c(c5)C(=O)N(C5CCC(=O)NC5=O)C7=O)C6)CC4)c(OC)c3)cn(C)c(=O)c2C1` (stereo not shown) [Compound D199] had a half-inhibitory concentration (IC50) below 10 nM. For `CNC(=O)N1CCc2c(-c3cc(OC)c(CN4CCC(CCN(C)C5CCN(c6ccc7c(c6)C(=O)N(C6CCC(=O)NC6=O)C7=O)CC5)CC4)c(OC)c3)cn(C)c(=O)c2C1` (stereo not shown) [Compound D200], the IC50 is below 10 nM. For `CNC(=O)N1CCc2c(-c3cc(OC)c(CN4CCC(N5CCN(c6ccc7c(c6)C(=O)N(C6CCC(=O)NC6=O)C7=O)CC5)CC4)c(OC)c3)cn(C)c(=O)c2C1` (stereo not shown) [Compound D201] the value was below 10 nM. For `CNC(=O)N1CCc2c(-c3cc(OC)c(CN4CCC5(CC4)CN(CCN4CCN(c6ccc7c(c6)C(=O)N(C6CCC(=O)NC6=O)C7=O)CC4)CCO5)c(OC)c3)cn(C)c(=O)c2C1` (stereo not shown) [Compound D202] the value was 10 to 100 nM; for `CNC(=O)N1CCc2c(-c3cc(OC)c(CN4CCC5(CC4)CN(C(=O)CCCOc4ccc6c(c4)C(=O)N(C4CCC(=O)NC4=O)C6=O)CCO5)c(OC)c3)cn(C)c(=O)c2C1` (stereo not shown) [Compound D203], 10 to 100 nM; for `COc1cc(-c2cn(C)c(=O)c3c2CCN(C(=O)NCCN2CCC(OC4CCN(c5ccc6c(c5)C(=O)N(C5CCC(=O)NC5=O)C6=O)CC4)C2)C3)cc(OC)c1CN(C)C` (stereo not shown) [Compound D204], 100 to 1000 nM. `COc1cc(-c2cn(C)c(=O)c3c2CCN(C(=O)NCCN2CCC(C4CCN(c5ccc6c(c5)C(=O)N(C5CCC(=O)NC5=O)C6=O)CC4)C2)C3)cc(OC)c1CN(C)C` (stereo not shown) [Compound D205] gave an IC50 of 10 to 100 nM.

As for `COc1cc(-c2cn(C)c(=O)c3c2CCN(C(=O)NCCN2CCC(OCC4CCN(c5ccc6c(c5)C(=O)N(C5CCC(=O)NC5=O)C6=O)CC4)C2)C3)cc(OC)c1CN(C)C` (stereo not shown) [Compound D206], the half-maximal inhibitory concentration (IC50) fell in the range of 100 to 1000 nM. The molecule `COc1cc(-c2cn(C)c(=O)c3c2CCN(C(=O)NCCCN2CCC4(C2)CN(c2ccc5c(c2)C(=O)N(C2CCC(=O)NC2=O)C5=O)C4)C3)cc(OC)c1CN(C)C` (stereo not shown) [Compound D207] gave an IC50 of 10 to 100 nM.

For `COc1cc(-c2cn(C)c(=O)c3c2CCN(C(=O)NCCCN2CCC4(CCN(c5ccc6c(c5)C(=O)N(C5CCC(=O)NC5=O)C6=O)C4)C2)C3)cc(OC)c1CN(C)C` (stereo not shown) [Compound D208], the concentration for half-maximal inhibition (IC50) was in the range of 10 to 100 nM. In the case of `COc1cc(-c2cn(C)c(=O)c3c2CCN(C(=O)NCCN2CCC4(CC2)CCN(c2ccc5c(c2)C(=O)N(C2CCC(=O)NC2=O)C5=O)C4)C3)cc(OC)c1CN(C)C` (stereo not shown) [Compound D209], the IC50 lay in the range of 10 to 100 nM. In turn, `COc1cc(-c2cn(C)c(=O)c3c2CCN(C(=O)NCCCN2CC4(CCN(c5ccc6c(c5)C(=O)N(C5CCC(=O)NC5=O)C6=O)C4)C2)C3)cc(OC)c1CN(C)C` (stereo not shown) [Compound D210] registered an IC50 of 10 to 100 nM.

For `COc1cc(-c2cn(C)c(=O)c3c2CCN(C(=O)NCCN2CC4(CCN(c5ccc6c(c5)C(=O)N(C5CCC(=O)NC5=O)C6=O)C4)C2)C3)cc(OC)c1CN(C)C` (stereo not shown) [Compound D211], the IC50 was in the range of 100 to 1000 nM. As for `COc1cc(-c2cn(C)c(=O)c3c2CCN(C(=O)NCCN2CCC4(CC2)CN(c2ccc5c(c2)C(=O)N(C2CCC(=O)NC2=O)C5=O)C4)C3)cc(OC)c1CN(C)C` (stereo not shown) [Compound D212], the IC50 lay in the range of 10 to 100 nM. For `COc1cc(-c2cn(C)c(=O)c3c2CCN(C(=O)NCC2CC4(CCN(CCOc5ccc6c(c5)C(=O)N(C5CCC(=O)NC5=O)C6=O)CC4)O2)C3)cc(OC)c1CN(C)C` (stereo not shown) [Compound D213] the value was 100 to 1000 nM; for `COc1cc(-c2cn(C)c(=O)c3c2CCN(C(=O)NC2CCC4(CCN(CCCN5CCN(c6ccc7c(c6)C(=O)N(C6CCC(=O)NC6=O)C7=O)CC5)C4)C2)C3)cc(OC)c1CN(C)C` (stereo not shown) [Compound D214], 100 to 1000 nM. On to `COc1cc(-c2cn(C)c(=O)c3c2CCN(C(=O)NC2CCC4(CCN(CCOc5ccc6c(c5)C(=O)N(C5CCC(=O)NC5=O)C6=O)C4)C2)C3)cc(OC)c1CN(C)C` (stereo not shown) [Compound D215], for which the IC50 fell in the range of 100 to 1000 nM. `COc1cc(-c2cn(C)c(=O)c3c2CCN(C(=O)NC2CC4(CCN(CCCN5CCN(c6ccc7c(c6)C(=O)N(C6CCC(=O)NC6=O)C7=O)CC5)CC4)C2)C3)cc(OC)c1CN(C)C` (stereo not shown) [Compound D216] registered a concentration for half-maximal inhibition (IC50) of at least 1000 nM.

Take `COc1cc(-c2cn(C)c(=O)c3c2CCN(C(=O)NC2CC4(CCN(CCCCN5CCN(c6ccc7c(c6)C(=O)N(C6CCC(=O)NC6=O)C7=O)CC5)CC4)CO2)C3)cc(OC)c1CN(C)C` (stereo not shown) [Compound D217]: the IC50 was at least 1000 nM. For `COc1cc(-c2cn(C)c(=O)c3c2CCN(C(=O)NCC2CC4(CCN(CCCCN5CCN(c6ccc7c(c6)C(=O)N(C6CCC(=O)NC6=O)C7=O)CC5)CC4)C2)C3)cc(OC)c1CN(C)C` (stereo not shown) [Compound D218] the value was 10 to 100 nM.

Turning to `COc1cc(-c2cn(C)c(=O)c3c2CCN(C(=O)NCC2CC4(C2)CN(CCCCN2CCN(c5ccc6c(c5)C(=O)N(C5CCC(=O)NC5=O)C6=O)CC2)C4)C3)cc(OC)c1CN(C)C` (stereo not shown) [Compound D219], the IC50 lay in the range of 100 to 1000 nM. For `COc1cc(-c2cn(C)c(=O)c3c2CCN(C(=O)CC2CCC24CCN(CCCCN2CCN(c5ccc6c(c5)C(=O)N(C5CCC(=O)NC5=O)C6=O)CC2)CC4)C3)cc(OC)c1CN(C)C` (stereo not shown) [Compound D220] the value was 100 to 1000 nM. In the case of `COc1cc(-c2cn(C)c(=O)c3c2CCN(C(=O)NC2CCC4CN(CCCCN5CCN(c6ccc7c(c6)C(=O)N(C6CCC(=O)NC6=O)C7=O)CC5)CC42)C3)cc(OC)c1CN(C)C` (stereo not shown) [Compound D221], the IC50 is 100 to 1000 nM.

In turn, `CNC(=O)N1CCc2c(-c3cc(OC)c(CN4CCC5(CC4)CN(CCCCOc4ccc6c(c4)C(=O)N(C4CCC(=O)NC4=O)C6=O)CCO5)c(OC)c3)cn(C)c(=O)c2C1` (stereo not shown) [Compound D222] yielded an IC50 below 10 nM. The result for `COc1cc(-c2cn(C)c(=O)c3c2CCN(C(=O)NCCCN2CCC(OC4CCN(c5ccc6c(c5)C(=O)N(C5CCC(=O)NC5=O)C6=O)CC4)CC2)C3)cc(OC)c1CN(C)C` (stereo not shown) [Compound D223] reads 10 to 100 nM; that for `COc1cc(-c2cn(C)c(=O)c3c2CCN(C(=O)NC2CC4(CCN(CCOc5ccc6c(c5)C(=O)N(C5CCC(=O)NC5=O)C6=O)CC4)C2)C3)cc(OC)c1CN(C)C` (stereo not shown) [Compound D224], below 10 nM; that for `COc1cc(-c2cn(C)c(=O)c3c2CCN(C(=O)NCCCN2CCC(OC4CCN(c5ccc6c(c5)C(=O)N(C5CCC(=O)NC5=O)C6=O)CC4)C2)C3)cc(OC)c1CN(C)C` (stereo not shown) [Compound D225], 10 to 100 nM.

As to `COc1cc(-c2cn(C)c(=O)c3c2CCN(C(=O)NC2CC4(CCN(CCCCN5CCN(c6ccc7c(c6)C(=O)N(C6CCC(=O)NC6=O)C7=O)CC5)C4)C2)C3)cc(OC)c1CN(C)C` (stereo not shown) [Compound D226], the IC50 lay within 10 to 100 nM. `COc1cc(-c2cn(C)c(=O)c3c2CCN(C(=O)NCCCN2CCC(N4CCN(c5ccc6c(c5)C(=O)N(C5CCC(=O)NC5=O)C6=O)CC4)C2)C3)cc(OC)c1CN(C)C` (stereo not shown) [Compound D227]: the IC50 was below 10 nM. The result for `COc1cc(-c2cn(C)c(=O)c3c2CCN(C(=O)NC2CC4(CCN(CCOc5ccc6c(c5)C(=O)N(C5CCC(=O)NC5=O)C6=O)C4)C2)C3)cc(OC)c1CN(C)C` (stereo not shown) [Compound D228] reads 10 to 100 nM; that for `COc1cc(-c2cn(C)c(=O)c3c2CCN(C(=O)NCCCN2CCC(OCC4CCN(c5ccc6c(c5)C(=O)N(C5CCC(=O)NC5=O)C6=O)CC4)C2)C3)cc(OC)c1CN(C)C` (stereo not shown) [Compound D229], 10 to 100 nM. The result for `COc1cc(-c2cn(C)c(=O)c3c2CCN(C(=O)NC2CC4(C2)CN(CCCCN2CCN(c5ccc6c(c5)C(=O)N(C5CCC(=O)NC5=O)C6=O)CC2)C4)C3)cc(OC)c1CN(C)C` (stereo not shown) [Compound D230] reads at least 1000 nM. The result for `COc1cc(-c2cn(C)c(=O)c3c2CCN(C(=O)NCCCN2CCC4C(C2)CN4c2ccc4c(c2)C(=O)N(C2CCC(=O)NC2=O)C4=O)C3)cc(OC)c1CN(C)C` (stereo not shown) [Compound D231] reads below 10 nM. For `COc1cc(-c2cn(C)c(=O)c3c2CCN(C(=O)NCC2CC4CN(CCCCN5CCN(c6ccc7c(c6)C(=O)N(C6CCC(=O)NC6=O)C7=O)CC5)CC4C2)C3)cc(OC)c1CN(C)C` (stereo not shown) [Compound D232], the IC50 is 10 to 100 nM.
